According to patent publication US11236052B2, “Aminobenzimidazole derivatives, treatments, and methods of inhibiting histone deacetylase” (TRANSLATIONAL DRUG DEVELOPMENT, LLC, priority 2017, dated 2022):
Read-outs that look alike come from different tables or passages of the source.

Legend:
Permeability (PAMPA) = format: in vitro ADME; conditions: read-out: Permeabiltiy (PAMPA)
RS4-11 = test: CellTiter-Glo cell viability assay, RS4-11; format: cell-based; conditions: ALL; for IC50: Homo sapiens, RS4-11, 72 hours
Procedure: (§1) Cell Viability Assay—Cell viability was measured by the CellTiter-Glo® cell viability assay Promega (Madison, Wis.). The CellTiter-Glo® Luminescent Cell Viability Assay is a homogeneous method to determine the number of viable cells in culture based on quantitation of the ATP present, which signals the presence of metabolically active cells. Following treatment, CellTiter-Glo® is added to treatment wells and incubated at 37° C. luminescence values were measured at using a Molecular Devices Spectramax microplate reader.
(§2) Single Agent Studies—Cells were grown to 70% confluency, trypsinized, counted, and seeded in 96 well flat-bottom plates at a final concentration of 2.5×10^3-5×10^3 cells/well (Day 0). Cells were allowed to incubate in growth media for 24 hours. Treatment with the test agents began on Day 1 and continued for 72 hours. At the 72-hour time point, treatment-containing media was removed. Viable cell numbers are quantified by the CellTiter-Glo® cell viability assay as described above. Experiments were run with triplicate concentrations to determine growth inhibitory activity. Results from these studies were used to calculate an IC50 value (concentration of drug that inhibits cell growth by 50 percent of control) for each compound.
(§3) Data Collection—For single agent and combination studies, data from each experiment was collected and expressed as % Cell Growth using the following calculation: % Cell Growth=(ftest/fvehicle)×100
(§4) Where ftest is the luminescence of the tested sample, and fvehicle is the luminescence of the vehicle in which the drug is dissolved. Dose response graphs and IC50 values were generated using Prism 6 software (GraphPad).

[1] = Pharmacokinetic studies in the mouse; format: in vivo; conditions: for Vd: read-out: Vss; for Vd/F: read-out: Vz/F obs
Procedure: Plasma samples were collected from healthy mice and analyzed for levels of compound ID #1, ID #2, and ID #3 and reported in Table 5. In brief, compounds were individually and accurately weighed out to produce a stock solution in Dimethyl-sulfoxide (DMSO) at a concentration of 2 mg/mL and stored at −20° C. From the stock solution, a working stock was prepared by diluting it in Methanol-Water 50:50 (v/v) at 20 μg/mL for calibration curve preparation and stored at 4° C. Standards used for quantitation and quality control samples (QC's) were prepared on the same day of sample processing using blank plasma obtained from non-treated mice. For each analyte, standards were prepared through serial dilution of the working stock at concentrations of 0.1, 0.5, 1.0, 10, 50, 100, 500 and 1000 ng/mL; QC's were prepared at intermediate concentrations of 0.75, 7.5, 75 and 750 ng/mL. Plasma samples were stored at −80° C. until ready for analysis and then placed on ice for thawing. An aliquot of 20 μL for samples, standards and QC's, were transferred into a 96-well extraction plate according to a pre-defined layout. Appropriate volume of Methanol-Formic Acid 99.9-0.1 containing internal standard (Verapamil at 25 ng/mL) was added to each well and samples were extracted under vacuum. Eluent was then transferred into a LCMS plate for analysis using a suitable column for separation and MRM detection. Concentration of analytes was calculated based on the calibration curve and analyzed for pharmacokinetic parameters by using Non-compartmental analysis (NCA) using WinNonlin Phoenix software. Parameters such as Cmax, Tmax, half-life, AUC(0-last), AUC(0-∞), volume of distribution (Vss) and clearance (Cl/F) were reported.
The analogs were tested for pharmacokinetic analysis in the mouse with doses of 1 mg/kg for intravenous (IV) route and 5 mg/kg for oral (P0) route. […] Overall exposure following IV dose also favored compound ID #1 with AUCO-∞ 1488.1 hr*ng/mL whereas compound ID #2 and ID #3 were 329.1 and 1193.7 hr*ng/mL, respectively.

H460 = test: CellTiter-Glo cell viability assay, H460; format: cell-based; conditions: NSCLC; for IC50: Homo sapiens, NCI-H460, H460, 72 hours
Procedure: as §1, §2, §3, §4

MFE280 = test: CellTiter-Glo cell viability assay, MFE280; format: cell-based; conditions: Uterine; for IC50: Homo sapiens, MFE-280, MFE280, 72 hours
Procedure: as §1, §2, §3, §4

Toledo = test: CellTiter-Glo cell viability assay, Toledo; format: cell-based; conditions: Lymphoma; for IC50: Homo sapiens, 72 hours
Procedure: as §1, §2, §3, §4

MM1.S cells = test: CellTiter-Glo cell viability assay, MM1.S cells; format: cell-based, human; conditions: for IC50: Homo sapiens
Procedure: Cell viability in the presence of varying concentrations of the above listed compounds at different time points was used to assess cytotoxicity and the effect of the compounds on cell proliferation.
Cell Viability Assay—Cell viability was measured by the CellTiter-GlO® cell viability assay from Promega (Madison, Wis.). The CellTiter-GlO® Luminescent Cell Viability Assay is a homogeneous method to determine the number of viable cells in culture based on quantitation of the ATP present, which signals the presence of metabolically active cells. Following treatment, CellTiter-GlO® is added to treatment wells and incubated at 37° C. luminescence values were measured at using a Molecular Devices Spectramax microplate reader
as §2, with “agents or standard agents” for “agents”, “72 hour timepoint, treatment containing” for “72-hour time point, treatment-containing”, “CellTiter-GlO®” for “CellTiter-Glo®”, “above.” for “above. Experiments were run with triplicate concentrations to determine growth inhibitory activity.”
Data Collection—For single agent and combination studies, data from each experiment was collected and expressed as % Cell Growth using the following calculation: Cell Growth=(ftest/fvehicle)×100
Where ftest is the fluorescence of the tested sample, and fvehicle is the fluorescence of the vehicle in which the drug is dissolved. Dose response graphs and IC50 values were generated using Prism 6 software (GraphPad) using the following equation: […]
Where X is the logarithm of concentration and Y is the response. Y starts at the Bottom and goes to Top with a sigmoid shape.
as §1, §2, §3, §4

[2] = plasma, 1.0 mg/kg IV, read-out: Half-life (converted)
[3] = plasma, 5.0 mg/kg PO, read-out: Half-life (converted)
[4] = plasma, iv, 1 mg/kg, 1.0 mg/kg IV, read-out: AUC0-∞
[5] = plasma, iv, 1 mg/kg, 1.0 mg/kg IV, read-out: Cmax
[6] = plasma, po, 5 mg/kg, 5.0 mg/kg PO, read-out: AUC0-∞
[7] = plasma, po, 5 mg/kg, 5.0 mg/kg PO, read-out: Cmax
[8] = plasma, po, 5 mg/kg, 5 mg/kg oral, read-out: AUC0-∞ (overall exposure following oral doses)
[9] = MM1.S cells, 72 hours treatment, read-out: IC50 in MM1.S
[10] = Myeloma, MM1.S, 72 hours (Table 3), read-out: IC50

SMILES | Papp (Permeability (PAMPA)) [×10⁻⁶ cm/s] | IC50 (RS4-11) [nM] | AUC0-∞ ([1]; 1.0 mg/kg IV) [ng·h/mL] | AUC % Extrap ([1]; 1.0 mg/kg IV) [%] | Cl/F obs ([1]; 1.0 mg/kg IV) [mL/min/kg] | Rsq (>0.85) ([1]; 1.0 mg/kg IV) | half-life ([1]; 1.0 mg/kg IV) [h] | AUC % Extrap ([1]; 5.0 mg/kg PO) [%] | Cmax ([1]; 5.0 mg/kg PO) [ng/mL] | Rsq (>0.85) ([1]; 5.0 mg/kg PO) | AUC(0-t) ([1]; plasma, 1.0 mg/kg IV) [ng·h/mL] | Tmax ([1]; plasma, 1.0 mg/kg IV) [h] | half-life [1, 2] [h] | Vd ([1]; plasma, 1.0 mg/kg IV) [L/kg] | AUC(0-t) ([1]; plasma, 5.0 mg/kg PO) [ng·h/mL] | CL/F ([1]; plasma, 5.0 mg/kg PO) [mL/min/kg] | Tmax ([1]; plasma, 5.0 mg/kg PO) [h] | bioavailability ([1]; plasma, 5.0 mg/kg PO) [%] | half-life [1, 3] [h] | Vd/F ([1]; plasma, 5.0 mg/kg PO) [L/kg] | other results
O=C(NO)c1ccc(Nc2nc3ccccc3n2CC2CCCCC2)cc1 [ID #1, 4-((1-(cyclohexylmethyl)-1H-benzo[d]imidazol-2-yl)amino)-N-hydroxybenzamide] | 1.68 | 1100 | 1488.05 | 0.25 | 11.5 | 0.97 | 3.70 | 0.75 | 757.43 | 0.99 | 1440 | 0.08 | 3.7 | 1.21 | 3220 | 21 | 0.5 | 53.4 | 3.39 | 6.16 | Improvement ID #1 over ID #3 Percent (RS4-11; RS4-11): 54.92%; Improvement ID #1 over ID #3 fold (RS4-11; RS4-11): 2.22 fold; AUC(0-inf) [1, 4]: 1490 ng·h/mL; Cmax [1, 5]: 1290 ng/mL; AUC(0-inf) [1, 6]: 3970 ng·h/mL; Cmax [1, 7]: 757 ng/mL; AUC(0-inf) [1, 8]: 3970 ng·h/mL; IC50 (H460): 3470 nM; Improvement ID #1 over ID #3 Percent (H460; H460): 66.86%; Improvement ID #1 over ID #3 fold (H460; H460): 3.02 fold; IC50 (MFE280): 5010 nM; Improvement ID #1 over ID #3 Percent (MFE280; MFE280): 48.40%; Improvement ID #1 over ID #3 fold (MFE280; MFE280): 1.94 fold; IC50 (Toledo): 810 nM; Improvement ID #1 over ID #3 Percent (Toledo): 74.77%; Improvement ID #1 over ID #3 fold (Toledo): 3.96 fold; IC50 (MM1.S cells; [9]): 500 nM; IC50 (MM1.S cells; [10]): 500 nM; Improvement ID #1 over ID #3 Percent (MM1.S cells; Myeloma, MM1.S): 76.08%; Improvement ID #1 over ID #3 fold (MM1.S cells; Myeloma, MM1.S): 4.18 fold
O=C(NO)c1ccc(Nc2nc3ccccc3n2C2CCCCCC2)cc1 [ID #3, 4-((1-cycloheptyl-1H-benzo[d]imidazol-2-yl)amino)-N-hydroxybenzamide] | 2.2 | 2440 | 1193.68 | 0.16 | 14 | 0.92 | 2.37 | 0.38 | 348.57 | 1.00 | 1190 | 0.08 | 2.37 | 1.96 | 1640 | 50.5 | 0.25 | 27.6 | 2.99 | 13.1 | AUC(0-inf) [1, 4]: 1190 ng·h/mL; Cmax [1, 5]: 830 ng/mL; AUC(0-inf) [1, 6]: 1650 ng·h/mL; Cmax [1, 7]: 349 ng/mL; AUC(0-inf) [1, 8]: 1650 ng·h/mL; IC50 (H460): 10500 nM; IC50 (MFE280): 9710 nM; IC50 (Toledo): 3210 nM; IC50 (MM1.S cells; [9]): 2100 nM; IC50 (MM1.S cells; [10]): 2090 nM
